Experimental data taken from ChEMBL document CHEMBL1201862, “PubChem BioAssay data set” (2004).
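All cell lines were grown in 96-well plates and treated with compound for 48 hours. GI50: concentration for 50% inhibition of growth.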 Active and inactive are the calls of the source. Cut-off read from the data, not from the text of the source: active = GI50 up to about 1.1 µM and inactive = higher.

Tests used:
Assay in all cases: DTP human tumour cell line panel, 48 h
SK-MEL-28 = test system: SK-MEL-28
A498 = test system: A498
HOP-92 = test system: HOP-92
OVCAR-4 = test system: OVCAR-4
NCI/ADR-RES = test system: NCI/ADR-RES
SW-620 = test system: SW-620
SK-MEL-2 = test system: SK-MEL-2
Malme-3M = test system: Malme-3M
MDA-MB-231 = test system: MDA-MB-231
MDA-MB-435 = test system: MDA-MB-435
SF-268 = test system: SF-268
KM12 = test system: KM12
EKVX = test system: EKVX
A549 = test system: A549
Hs-578T = test system: Hs-578T
MCF7 = test system: MCF7
MDA-N = test system: MDA-N
SK-MEL-5 = test system: SK-MEL-5
SN12C = test system: SN12C
SR = test system: SR

Row | Structure (SMILES) | GI50 (SK-MEL-28) | GI50 (A498) | GI50 (HOP-92) | GI50 (OVCAR-4) | GI50 (NCI/ADR-RES) | GI50 (SW-620) | GI50 (SK-MEL-2) | GI50 (Malme-3M) | GI50 (MDA-MB-231) | GI50 (MDA-MB-435) | GI50 (SF-268) | GI50 (KM12) | GI50 (EKVX) | GI50 (A549) | GI50 (Hs-578T) | GI50 (MCF7) | GI50 (MDA-N) | GI50 (SK-MEL-5) | GI50 (SN12C) | GI50 (SR)
1 | CCOC(=O)CSC1NC(C(=O)OC)CC1OC (stereo not drawn) | > 100 µM (inactive) | > 100 µM (inactive) | > 100 µM (inactive) | > 100 µM (inactive) | > 100 µM (inactive) | > 100 µM (inactive) | > 100 µM (inactive) | > 100 µM (inactive) | > 100 µM (inactive) | > 100 µM (inactive) | > 100 µM (inactive) | > 100 µM (inactive) | > 100 µM (inactive) | > 100 µM (inactive) | > 100 µM (inactive) | > 100 µM (inactive) | > 100 µM (inactive) | > 100 µM (inactive) | – | –
2 | Clc1ccc(COC(Cn2ccnc2)c2ccc(Cl)cc2Cl)c(Cl)c1 (stereo not drawn) [MICONAZOLE] | 17.1 µM (inactive) | – | 11.4 µM (inactive) | 10.1 µM (inactive) | 6.1 µM (inactive) | 12.1 µM (inactive) | 16.2 µM (inactive) | 14.9 µM (inactive) | 12.6 µM (inactive) | 3.23 µM (inactive) | 11.2 µM (inactive) | 11.8 µM (inactive) | 14.3 µM (inactive) | 9.64 µM (inactive) | 13.4 µM (inactive) | 10.9 µM (inactive) | 4.8 µM (inactive) | – | 13.6 µM (inactive) | –
3 | COC1C(O)C(O[C@H]2CC[C@@]3(C)C(CC[C@@H]4[C@@H]3CC[C@]3(C)[C@@H](C(C)OC5OC(CO)C(O)C(O)C5O)CC[C@]43O)C2)OC(C)C1OC1OC(CO)C(O)C(O)C1O (stereo partly drawn) | > 100 µM (inactive) | > 100 µM (inactive) | > 100 µM (inactive) | > 100 µM (inactive) | > 100 µM (inactive) | > 100 µM (inactive) | > 100 µM (inactive) | > 100 µM (inactive) | > 100 µM (inactive) | > 100 µM (inactive) | > 100 µM (inactive) | > 100 µM (inactive) | > 100 µM (inactive) | > 100 µM (inactive) | > 100 µM (inactive) | > 100 µM (inactive) | > 100 µM (inactive) | > 100 µM (inactive) | > 100 µM (inactive) | > 100 µM (inactive)
4 | COc1ccc(-n2nnc3c(C#N)c(C)c(-c4ccccc4)n3c2=O)cc1 | 2.4 µM (inactive) | 3.45 µM (inactive) | > 92.7 µM (inactive) | > 75.2 µM (inactive) | 2.84 µM (inactive) | – | 3.56 µM (inactive) | 3.95 µM (inactive) | 10.3 µM (inactive) | 0.543 µM (active) | 5.19 µM (inactive) | 2.71 µM (inactive) | 2.84 µM (inactive) | 2.9 µM (inactive) | 4.58 µM (inactive) | 3.8 µM (inactive) | 0.413 µM (active) | 2.81 µM (inactive) | 4.34 µM (inactive) | 1.96 µM (inactive)
5 | O=[N+]([O-])c1ccc(C(c2c[nH]c3ccccc23)c2c[nH]c3ccccc23)cc1 | 18.5 µM (inactive) | 16.1 µM (inactive) | – | 12 µM (inactive) | 11 µM (inactive) | 12.4 µM (inactive) | 7.31 µM (inactive) | 15.5 µM (inactive) | 12.4 µM (inactive) | 13.3 µM (inactive) | 8.85 µM (inactive) | 6.24 µM (inactive) | 19.4 µM (inactive) | 6.82 µM (inactive) | 19 µM (inactive) | 2.24 µM (inactive) | 11.6 µM (inactive) | 5.97 µM (inactive) | 14.4 µM (inactive) | 4.5 µM (inactive)
6 | Nc1nc(O)c(N)c(NCCOCP(=O)(O)O)n1 | > 100 µM (inactive) | > 100 µM (inactive) | > 100 µM (inactive) | > 100 µM (inactive) | > 100 µM (inactive) | > 100 µM (inactive) | > 100 µM (inactive) | > 100 µM (inactive) | > 100 µM (inactive) | > 100 µM (inactive) | > 100 µM (inactive) | – | > 100 µM (inactive) | > 100 µM (inactive) | > 100 µM (inactive) | > 100 µM (inactive) | > 100 µM (inactive) | > 100 µM (inactive) | > 100 µM (inactive) | > 100 µM (inactive)
7 | C=CCC1(OCc2ccccc2)C(=O)C(=O)OC1C1COC(C)(C)O1 (stereo not drawn) | > 100 µM (inactive) | > 100 µM (inactive) | – | > 100 µM (inactive) | > 100 µM (inactive) | > 100 µM (inactive) | > 100 µM (inactive) | > 100 µM (inactive) | > 100 µM (inactive) | > 100 µM (inactive) | > 100 µM (inactive) | > 100 µM (inactive) | > 100 µM (inactive) | > 100 µM (inactive) | > 100 µM (inactive) | > 100 µM (inactive) | > 100 µM (inactive) | > 100 µM (inactive) | > 100 µM (inactive) | > 100 µM (inactive)
8 | COc1ccc(-c2cc(-c3ccc(O)cc3O)c(C#N)c(=O)[nH]2)cc1 | 15.1 µM (inactive) | – | 12.6 µM (inactive) | 20.1 µM (inactive) | 19.6 µM (inactive) | 21.3 µM (inactive) | – | 23.1 µM (inactive) | 17.3 µM (inactive) | 13.8 µM (inactive) | 24.3 µM (inactive) | 22.6 µM (inactive) | 15.2 µM (inactive) | 23.4 µM (inactive) | 18.5 µM (inactive) | 27 µM (inactive) | 11.6 µM (inactive) | 15.5 µM (inactive) | 18.8 µM (inactive) | 16.7 µM (inactive)
9 | C[C@H]1C(=O)C2=C[C@H]1CCC(=O)[C@]1(C)CCCC(C)(C)[C@H]1C[C@H]2O | 40.1 µM (inactive) | 12.1 µM (inactive) | 24.3 µM (inactive) | 48.6 µM (inactive) | 21.5 µM (inactive) | 14.9 µM (inactive) | > 100 µM (inactive) | 20.6 µM (inactive) | 5.38 µM (inactive) | 31.2 µM (inactive) | 20.5 µM (inactive) | 19 µM (inactive) | 13.1 µM (inactive) | 19 µM (inactive) | 19 µM (inactive) | 13.7 µM (inactive) | 31.6 µM (inactive) | – | 26.9 µM (inactive) | 17.5 µM (inactive)
10 | O=C1NNC(=O)c2ccccc2SSc2ccccc2C(=O)NNC(=O)c2ccccc2SSc2ccccc21 | 45.5 µM (inactive) | – | > 50 µM (inactive) | 33.7 µM (inactive) | 17.8 µM (inactive) | 8.59 µM (inactive) | 26.8 µM (inactive) | 15.6 µM (inactive) | 32.4 µM (inactive) | 39 µM (inactive) | 5.31 µM (inactive) | 22.5 µM (inactive) | 18.1 µM (inactive) | 19.5 µM (inactive) | > 50 µM (inactive) | 6.05 µM (inactive) | 32 µM (inactive) | 26.9 µM (inactive) | 12.9 µM (inactive) | 2.55 µM (inactive)
11 | O=C(Oc1ccc(OC(Oc2ccccc2)c2ccccc2)cc1)c1ccccc1 (stereo not drawn) | 17.1 µM (inactive) | 18.6 µM (inactive) | – | 15 µM (inactive) | 27.9 µM (inactive) | > 31.6 µM (inactive) | 17.3 µM (inactive) | 13.2 µM (inactive) | 28 µM (inactive) | 24.6 µM (inactive) | 13 µM (inactive) | 18.7 µM (inactive) | 29.7 µM (inactive) | 21.1 µM (inactive) | > 31.6 µM (inactive) | 29.8 µM (inactive) | 14.4 µM (inactive) | 22.1 µM (inactive) | 28.8 µM (inactive) | 19.1 µM (inactive)
12 | Cn1c(N)c(Cc2ccc(Cl)cc2)c(=O)[nH]c1=O | > 100 µM (inactive) | > 100 µM (inactive) | 89.7 µM (inactive) | – | > 100 µM (inactive) | > 100 µM (inactive) | > 100 µM (inactive) | > 100 µM (inactive) | > 100 µM (inactive) | > 100 µM (inactive) | > 100 µM (inactive) | > 100 µM (inactive) | > 100 µM (inactive) | > 100 µM (inactive) | > 100 µM (inactive) | > 100 µM (inactive) | > 100 µM (inactive) | > 100 µM (inactive) | > 100 µM (inactive) | > 100 µM (inactive)
13 | COc1cccc2c3cccc(OC)c3c3[nH]cnc3c12 | 5.24 µM (inactive) | 18.1 µM (inactive) | 6.04 µM (inactive) | 5.45 µM (inactive) | 3.09 µM (inactive) | 1.73 µM (inactive) | 20.1 µM (inactive) | 3.88 µM (inactive) | 1.87 µM (inactive) | 2.06 µM (inactive) | 4.54 µM (inactive) | 2.02 µM (inactive) | 14.7 µM (inactive) | 1.57 µM (inactive) | 0.394 µM (active) | 1.58 µM (inactive) | 1.85 µM (inactive) | – | 5.45 µM (inactive) | 2.16 µM (inactive)
14 | Nc1ccn(C2CCC(CO)O2)c(=S)n1 (stereo not drawn) | – | > 100 µM (inactive) | > 100 µM (inactive) | > 10 µM (inactive) | > 100 µM (inactive) | > 100 µM (inactive) | > 100 µM (inactive) | > 100 µM (inactive) | > 100 µM (inactive) | > 100 µM (inactive) | > 100 µM (inactive) | > 100 µM (inactive) | > 100 µM (inactive) | > 100 µM (inactive) | > 100 µM (inactive) | > 100 µM (inactive) | > 100 µM (inactive) | > 100 µM (inactive) | > 100 µM (inactive) | > 100 µM (inactive)
